Source: PubChem BioAssay (NCI)
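Dose response: 5 concentrations. Exposure: 48 h. Format: 96-well plates. Endpoint: linear interpolation; highest concentration if not reached. At the TGI there is no net growth.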

How the values were obtained:
Assay in all cases: DTP human tumour cell line panel, 48 h
NCI-H460 lung = test system: NCI-H460 lung
MCF7 breast = test system: MCF7 breast
BT-549 breast = test system: BT-549 breast
OVCAR-3 ovarian = test system: OVCAR-3 ovarian
UACC-62 melanoma = test system: UACC-62 melanoma
UACC-257 melanoma = test system: UACC-257 melanoma
SK-MEL-2 melanoma = test system: SK-MEL-2 melanoma
M14 melanoma = test system: M14 melanoma
SF-268 CNS = test system: SF-268 CNS
HCT-15 colon = test system: HCT-15 colon
TK-10 renal = test system: TK-10 renal
EKVX NSCLC = test system: EKVX NSCLC
SF-295 CNS = test system: SF-295 CNS
OVCAR-8 ovarian = test system: OVCAR-8 ovarian
PC-3 prostate = test system: PC-3 prostate
CAKI-1 renal = test system: CAKI-1 renal
SK-MEL-5 melanoma = test system: SK-MEL-5 melanoma
HOP-92 NSCLC = test system: HOP-92 NSCLC

CCOC(=O)Cc1cnc(NC(NC(=O)CC)(C(F)(F)F)C(F)(F)F)s1
TGI (NCI-H460 lung): > 100 µM
TGI (MCF7 breast): > 100 µM
TGI (BT-549 breast): > 100 µM
TGI (OVCAR-3 ovarian): > 100 µM
TGI (UACC-62 melanoma): > 100 µM
TGI (UACC-257 melanoma): > 100 µM
TGI (SK-MEL-2 melanoma): > 100 µM
TGI (M14 melanoma): > 100 µM
TGI (SF-268 CNS): > 100 µM
TGI (HCT-15 colon): > 100 µM
TGI (TK-10 renal): > 100 µM
TGI (EKVX NSCLC): > 100 µM

COc1ccc(N2C(=O)C3c4[nH]c5ccc(F)cc5c4C4CCC(C(C)(C)C)CC4C3C2=O)cc1 (stereo not drawn)
TGI (NCI-H460 lung): > 10 µM
TGI (MCF7 breast): > 10 µM
TGI (SF-295 CNS): > 10 µM
TGI (OVCAR-3 ovarian): > 10 µM
TGI (OVCAR-8 ovarian): > 10 µM
TGI (UACC-62 melanoma): > 10 µM
TGI (PC-3 prostate): > 10 µM
TGI (SK-MEL-2 melanoma): > 10 µM
TGI (CAKI-1 renal): > 10 µM
TGI (M14 melanoma): > 10 µM
TGI (SF-268 CNS): > 10 µM
TGI (SK-MEL-5 melanoma): > 10 µM
TGI (HCT-15 colon): > 10 µM
TGI (TK-10 renal): > 10 µM
TGI (EKVX NSCLC): > 10 µM

Cc1nc2[nH]ncn2c(=O)c1CCO
TGI (NCI-H460 lung): > 10 µM
TGI (MCF7 breast): > 10 µM
TGI (OVCAR-8 ovarian): > 10 µM
TGI (UACC-62 melanoma): > 10 µM
TGI (PC-3 prostate): > 10 µM
TGI (SK-MEL-2 melanoma): > 10 µM
TGI (CAKI-1 renal): > 10 µM
TGI (M14 melanoma): > 10 µM
TGI (SF-268 CNS): > 10 µM
TGI (SK-MEL-5 melanoma): > 10 µM
TGI (HCT-15 colon): > 10 µM
TGI (TK-10 renal): > 10 µM
TGI (EKVX NSCLC): > 10 µM

COc1ccc2c3c([nH]c2c1)CCN(Cc1ccccc1)C3
TGI (NCI-H460 lung): 37.7 µM
TGI (MCF7 breast): 33.8 µM
TGI (SF-295 CNS): 28.2 µM
TGI (OVCAR-8 ovarian): > 100 µM
TGI (UACC-62 melanoma): > 100 µM
TGI (UACC-257 melanoma): 42.5 µM
TGI (HOP-92 NSCLC): 25.6 µM
TGI (M14 melanoma): 34.8 µM
TGI (SF-268 CNS): > 100 µM
TGI (SK-MEL-5 melanoma): 32.6 µM
TGI (HCT-15 colon): 39 µM
TGI (TK-10 renal): 65.1 µM
TGI (EKVX NSCLC): > 100 µM
